Laboratory results from patent EP1392697B1, “ANTIDEPRESSANT AZAHETEROCYCLYMETHYL DERIVATIVES OF 2,3-DIHYDRO-1,4-DIOXINO 2,3-F]QUINOLINE” (Wyeth, priority 2001, dated 2002).

How the values were obtained:
[1] = target: serotonin transporter; assay: 3H-paroxetine displacement binding, serotonin transporter affinity; conditions: displacement of 3H-paroxetine from male rat frontal cortical membranes; read-out: 5-HT Transporter Affinity KI
[2] = target: human 5HT1A receptors; assay: [3H] 8-OH-DPAT displacement binding, 5HT1A receptor affinity; conditions: displacement of [3H] 8-OH-DPAT; CHO cells stably transfected with human 5HT1A receptors
Text: 8-OH-DPAT (dipropylamino-tetralin) from the 5HT1A serotonin receptor following a modification of the procedure of Hall et al., J. Neurochem.

[3] = target: cloned human 5HT1A receptors; assay: 35S-GTPγS binding assay, 5HT1A antagonist activity; assay type: biochemical; conditions: reversal of the effects of the standard agonist 8-OH-DPAT, read-out: 5HT1A Function IC50
Text: Agonists produce an increase in binding whereas antagonists produce no increase but rather reverse the effects of the standard agonist 8-OH-DPAT. The test compound's maximum inhibitory effect is represented as the Imax, while its potency is defined by the IC50.

Structure (SMILES)	Ki [1] [nM]	Ki [2] [nM]	IC50 [3] [nM]
CCc1cccc2c(CC3CCN(CC4COc5ccc6nc(C)ccc6c5O4)CC3)c[nH]c12 (stereo not drawn) [Example 19, 2-({4-[(7-Ethyl-1H-indol-3-yl)methyl]piperidin-1-yl}methyl)-8-methyl-2,3-dihydro[1,4]dioxino[2,3-f]quinoline]	11	7.38	169
Cc1ccc2c3c(ccc2n1)OCC(CN1CCC(Cc2c[nH]c4cc(Cl)ccc24)CC1)O3 (stereo not drawn) [Example 20, 2-({4-[(6-Chloro-1H-indol-3-yl)methyl]piperidin-1-yl}methyl)-8-methyl-2,3-dihydro[1,4]dioxino[2,3-f]quinoline]	7	25.4	666
